# Source: publication PMC4030749 (Molecular cancer therapeutics, 2012)
# “And” between values parts separate entries of the source, which are not always exact repeats. Identical values can stand only once.
# What was measured:
# Sm3e/C825 bsAb [1] = assay: Binding affinity of Sm3e/C825 bsAb; conditions: unlabeled (no metal) DOTA
# [2] = system: LS174T and C6 tumor-bearing mice; assay: Pretargeted organ/tissue biodistribution in tumor-bearing mice; type: in vivo
# Sm3e/C825 bsAb [3] = conditions: read-out: binding affinity (KD) to bsAb; cited from earlier work
# [4] = pretargeted protocol, 24 h p.i., n=3
# [5] = pretargeted protocol, 4 h p.i., n=3
# [6] = pretargeted protocol, 48 h p.i., n=3
smiles,measurement,setting,value
"O=C(O)CN1CCN(CC(=O)O)CCN(CC(=O)O)CCN(CC(=O)O)CC1 [DOTA, 1,4,7,10-Tetraazacyclododecane-1,4,7,10-tetraacetic acid]",binding to pretargeted anti-DOTA binding sites,Sm3e/C825 bsAb [1],no observable binding
O=C([O-])CN1CCN(CC(=O)[O-])CCN(CC(=O)[O-])CCN(CC(=O)[O-])CC1.[111In+3] [^111In-DOTA],"Biodistribution, LS174T Tumor (antigen-positive)",[2]; [4],0.5 ± 0.1 %ID/g
same,"Tumor/organ ratio, LS174T tumor-to-Kidneys (both)",[2]; [4],1.2 ± 0.4
same,Kd,Sm3e/C825 bsAb [3],20 nM
O=C([O-])CN1CCN(CC(=O)[O-])CCN(CC(=O)[O-])CCN(CC(=O)[O-])CC1.[177Lu+3].[H+] [^177Lu-DOTA],"antigen-positive tumor uptake, pretargeted versus ^177Lu-DOTA alone",[2]; 4 h post-injection,approximately 90 fold
same,"Biodistribution, Adipose",[2]; [5],2.78 ± 1.08 %ID/g
same,"Biodistribution, Blood",[2]; [5],0.42 ± 0.02 %ID/g
same,"Biodistribution, Bone (femur)",[2]; [5],1.49 ± 0.38 %ID/g
same,"Biodistribution, C6 Tumor (antigen-negative)",[2]; [5],9.82 ± 0.35 (0.26 ± 0.08 g) %ID/g
same,"Biodistribution, Heart",[2]; [5],0.25 ± 0.16 %ID/g
same,"Biodistribution, Kidneys (both)",[2]; [5],0.92 ± 0.05 %ID/g
same,"Biodistribution, LS174T Tumor (antigen-positive)",[2]; [5],7.44 ± 0.41 (0.09 ± 0.03 g) %ID/g
same,"Biodistribution, Lg Intestine",[2]; [5],0.13 ± 0.09 %ID/g
same,"Biodistribution, Liver",[2]; [5],0.59 ± 0.21 %ID/g
same,"Biodistribution, Lung",[2]; [5],1.25 ± 0.43 %ID/g
same,"Biodistribution, Muscle",[2]; [5],1.56 ± 0.56 %ID/g
same,"Biodistribution, Skin",[2]; [5],4.68 ± 1.06 %ID/g
same,"Biodistribution, Sm Intestine",[2]; [5],0.28 ± 0.02 %ID/g
same,"Biodistribution, Spleen",[2]; [5],0.39 ± 0.09 %ID/g
same,"Biodistribution, Stomach (with contents)",[2]; [5],0.21 ± 0.12 %ID/g
same,"Tumor/organ ratio, Adipose",[2]; [5],3.2 ± 1.5
same,"Tumor/organ ratio, Bone (femur)",[2]; [5],5.3 ± 1.6
same,"Tumor/organ ratio, C6 Tumor",[2]; [5],0.7 ± 0.1
same,"Tumor/organ ratio, Heart",[2]; [5],49 ± 36
same,"Tumor/organ ratio, LS174T Tumor",[2]; [5],1
same,"Tumor/organ ratio, LS174T tumor-to-Blood",[2]; [5],18 ± 2
same,"Tumor/organ ratio, Lg Intestine",[2]; [5],80 ± 36
same,"Tumor/organ ratio, Liver",[2]; [5],13.9 ± 3.7
same,"Tumor/organ ratio, Lung",[2]; [5],7.2 ± 3.7
same,"Tumor/organ ratio, Muscle",[2]; [5],5.3 ± 1.6
same,"Tumor/organ ratio, Skin",[2]; [5],1.7 ± 0.4
same,"Tumor/organ ratio, Sm Intestine",[2]; [5],27 ± 4
same,"Tumor/organ ratio, Spleen",[2]; [5],20 ± 5
same,"Tumor/organ ratio, Stomach (with contents)",[2]; [5],48 ± 22
same,"Biodistribution, Adipose",[2]; [4],0.67 ± 0.12 %ID/g
same,"Biodistribution, Blood",[2]; [4],0.04 ± 0.01 %ID/g
same,"Biodistribution, Bone (femur)",[2]; [4],0.43 ± 0.12 %ID/g
same,"Biodistribution, C6 Tumor (antigen-negative)",[2]; [4],4.23 ± 0.54 (0.26 ± 0.07 g) %ID/g
same,"Biodistribution, Heart",[2]; [4],0.05 ± 0.01 %ID/g
same,"Biodistribution, Kidneys (both)",[2]; [4],0.88 ± 0.16 %ID/g
same,"Biodistribution, LS174T Tumor (antigen-positive)",[2]; [4],14.3 ± 1.8 %ID/g and 14.34 ± 1.83 (0.21 ± 0.10 g) %ID/g
same,"Biodistribution, Lg Intestine",[2]; [4],0.52 ± 0.56 %ID/g
same,"Biodistribution, Liver",[2]; [4],0.51 ± 0.23 %ID/g
same,"Biodistribution, Lung",[2]; [4],0.37 ± 0.07 %ID/g
same,"Biodistribution, Muscle",[2]; [4],0.41 ± 0.24 %ID/g
same,"Biodistribution, Skin",[2]; [4],1.05 ± 0.25 %ID/g
same,"Biodistribution, Sm Intestine",[2]; [4],0.08 ± 0.04 %ID/g
same,"Biodistribution, Spleen",[2]; [4],0.29 ± 0.09 %ID/g
same,"Biodistribution, Stomach (with contents)",[2]; [4],0.09 ± 0.07 %ID/g
same,"Tumor/organ ratio, Adipose",[2]; [4],23 ± 6
same,"Tumor/organ ratio, Bone (femur)",[2]; [4],38 ± 16
same,"Tumor/organ ratio, C6 Tumor",[2]; [4],3.4 ± 0.3
same,"Tumor/organ ratio, Heart",[2]; [4],323 ± 108
same,"Tumor/organ ratio, LS174T Tumor",[2]; [4],1
same,"Tumor/organ ratio, LS174T tumor-to-Blood",[2]; [4],380 ± 90
same,"Tumor/organ ratio, Lg Intestine",[2]; [4],83 ± 53
same,"Tumor/organ ratio, Liver",[2]; [4],33 ± 11
same,"Tumor/organ ratio, Lung",[2]; [4],39 ± 3
same,"Tumor/organ ratio, Muscle",[2]; [4],57 ± 41
same,"Tumor/organ ratio, Skin",[2]; [4],14 ± 2
same,"Tumor/organ ratio, Sm Intestine",[2]; [4],217 ± 76
same,"Tumor/organ ratio, Spleen",[2]; [4],52 ± 12
same,"Tumor/organ ratio, Stomach (with contents)",[2]; [4],252 ± 119
same,"Biodistribution, Adipose",[2]; [6],0.60 ± 0.29 %ID/g
same,"Biodistribution, Bone (femur)",[2]; [6],0.24 ± 0.10 %ID/g
same,"Biodistribution, C6 Tumor (antigen-negative)",[2]; [6],2.89 ± 2.28 (0.28 ± 0.13 g) %ID/g
same,"Biodistribution, Heart",[2]; [6],0.07 ± 0.03 %ID/g
same,"Biodistribution, Kidneys (both)",[2]; [6],0.62 ± 0.19 %ID/g
same,"Biodistribution, LS174T Tumor (antigen-positive)",[2]; [6],13.44 ± 3.25 (0.49 ± 0.09 g) %ID/g
same,"Biodistribution, Lg Intestine",[2]; [6],0.11 ± 0.04 %ID/g
same,"Biodistribution, Liver",[2]; [6],0.56 ± 0.35 %ID/g
same,"Biodistribution, Lung",[2]; [6],0.21 ± 0.04 %ID/g
same,"Biodistribution, Muscle",[2]; [6],0.15 ± 0.07 %ID/g
same,"Biodistribution, Skin",[2]; [6],0.71 ± 0.20 %ID/g
same,"Biodistribution, Sm Intestine",[2]; [6],0.14 ± 0.11 %ID/g
same,"Biodistribution, Spleen",[2]; [6],0.64 ± 0.60 %ID/g
same,"Biodistribution, Stomach (with contents)",[2]; [6],0.22 ± 0.24 %ID/g
same,"Tumor/organ ratio, Adipose",[2]; [6],28 ± 13
same,"Tumor/organ ratio, Bone (femur)",[2]; [6],60 ± 19
same,"Tumor/organ ratio, C6 Tumor",[2]; [6],10 ± 9
same,"Tumor/organ ratio, Heart",[2]; [6],244 ± 85
same,"Tumor/organ ratio, LS174T Tumor",[2]; [6],1
same,"Tumor/organ ratio, Lg Intestine",[2]; [6],128 ± 16
same,"Tumor/organ ratio, Liver",[2]; [6],32 ± 13
same,"Tumor/organ ratio, Lung",[2]; [6],63 ± 6
same,"Tumor/organ ratio, Muscle",[2]; [6],105 ± 40
same,"Tumor/organ ratio, Skin",[2]; [6],20 ± 8
same,"Tumor/organ ratio, Sm Intestine",[2]; [6],183 ± 129
same,"Tumor/organ ratio, Spleen",[2]; [6],40 ± 21
same,"Tumor/organ ratio, Stomach (with contents)",[2]; [6],276 ± 236
same,Kd,Sm3e/C825 bsAb [3],0.4 nM
